Assay results published in patent publication US7294623B2, “Benzyl morpholine derivatives” (Eli Lilly and Company, priority 2002, dated 2007).
Counter-ions that a name gives are not always drawn.

For `COc1ccccc1S[C@H](c1cccc(F)c1)[C@H]1CNCCO1` (single isomer, unassigned) (as salt: hydrochloride) [Example 13], the melting point was 233 to 234 °C. Work on `COc1ccccc1S[C@H](c1ccc(Cl)cc1)[C@H]1CNCCO1` (single isomer, unassigned) (as salt: hydrochloride) [Example 12] yielded a melting point of 238 to 241 °C. In the case of `Fc1cccc([C@@H](Sc2ccccc2Cl)[C@H]2CNCCO2)c1` (single isomer, unassigned) (as salt: hydrochloride) [Example 15], the melting point is reported as 183 to 187 °C. For `CCOc1ccccc1S[C@H](c1cccc(F)c1)[C@H]1CNCCO1` (single isomer, unassigned) (as salt: hydrochloride) [Example 14], the melting point was 211 to 215 °C.
